Values of other authors in US8623409B1, “Clonidine formulation” (Tris Pharma Inc., priority 2010, dated 2014).

Conditions: plasma level; see US patent application 2008/0152709

Clc1cccc(Cl)c1NC1=NCCN1 [clonidine, N-(2,6-dichlorophenyl)-4,5-dihydro-1H-imidazol-2-amine]
minimum effective dose for clonidine use as an anti-hypertensive agent: 200 pg/mL
